Measured values as given in patent publication US9326506B2, “Preparation method, agricultural composition and applications of natural brassinolide analogs” (CHENGDU NEWSUN CROPSCIENCE CO., LTD, priority 2012, dated 2016).

System: rice
Test: Low temperature assay on rice seedlings
Type: in vivo
Summary of the method: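 Nine-day-old etiolated rice seedlings (grown on water at 30 °C±2 °C, dark) immersed in brassinolide analogues at 1–0.0001 mg/L or pure water, held at 1–5 °C for 24 hr. Plant height, leaf area, root weight read at 3, 6, 9, 12 days; leaf and tiller number at 12 days.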

CC(C)(O)CC[C@@H](O)[C@](C)(O)[C@H]1CC[C@@]2(O)[C@@H]3CC(=O)[C@@H]4C[C@@H](O)[C@@H](O)C[C@]4(C)[C@H]3CC[C@]12C [BR6]
3.4 g: Weight of root (0.001 mg/l, 1 °C, 9 days) | Weight of root (0.01 mg/l, 1 °C, 9 days)
7.6 cm: Height (0.0001 mg/l, 3 °C, 12 days)
7.4 cm: Height (0.0001 mg/l, 1 °C, 9 days) | Height (0.0001 mg/l, 1 °C, 12 days) | Height (0.001 mg/l, 3 °C, 9 days) | Height (0.001 mg/l, 3 °C, 12 days) | Height (0.01 mg/l, 1 °C, 12 days)
3: Number of leaf (0.0001 mg/l, 1 °C, 12 days) | Number of tiller (0.0001 mg/l, 1 °C, 12 days) | Number of leaf (0.0001 mg/l, 2 °C, 12 days) | Number of tiller (0.0001 mg/l, 2 °C, 12 days) | Number of leaf (0.0001 mg/l, 3 °C, 12 days) | Number of leaf (0.0001 mg/l, 4 °C, 12 days) | Number of leaf (0.0001 mg/l, 5 °C, 12 days) | Number of leaf (0.001 mg/l, 1 °C, 12 days) | Number of tiller (0.001 mg/l, 1 °C, 12 days) | Number of leaf (0.001 mg/l, 2 °C, 12 days) | Number of tiller (0.001 mg/l, 2 °C, 12 days) | Number of leaf (0.001 mg/l, 3 °C, 12 days) | Number of leaf (0.001 mg/l, 4 °C, 12 days) | Number of leaf (0.001 mg/l, 5 °C, 12 days) | Number of tiller (0.001 mg/l, 5 °C, 12 days) | Number of leaf (0.01 mg/l, 1 °C, 12 days) | Number of tiller (0.01 mg/l, 1 °C, 12 days) | Number of leaf (0.01 mg/l, 2 °C, 12 days) | Number of tiller (0.01 mg/l, 2 °C, 12 days)
7.0 cm: Height (0.01 mg/l, 1 °C, 3 days) | Height (0.01 mg/l, 2 °C, 3 days)
12.7 cm^2: Area of leaf (0.001 mg/l, 2 °C, 9 days)
14.6 cm^2: Area of leaf (0.001 mg/l, 5 °C, 6 days)
7.2 cm: Height (0.0001 mg/l, 1 °C, 6 days) | Height (0.0001 mg/l, 2 °C, 6 days) | Height (0.0001 mg/l, 3 °C, 6 days) | Height (0.0001 mg/l, 5 °C, 3 days) | Height (0.001 mg/l, 2 °C, 9 days) | Height (0.01 mg/l, 1 °C, 6 days) | Height (0.01 mg/l, 2 °C, 6 days) | Height (0.01 mg/l, 3 °C, 6 days)
7 cm: Height (0.001 mg/l, 3 °C, 3 days) | Height (0.01 mg/l, 3 °C, 3 days)
6.9 cm: Height (0.001 mg/l, 1 °C, 3 days) | Height (0.001 mg/l, 2 °C, 3 days)
2.9 g: Weight of root (0.0001 mg/l, 3 °C, 9 days) | Weight of root (0.0001 mg/l, 3 °C, 12 days) | Weight of root (0.0001 mg/l, 4 °C, 12 days) | Weight of root (0.0001 mg/l, 5 °C, 9 days) | Weight of root (0.001 mg/l, 3 °C, 9 days) | Weight of root (0.001 mg/l, 3 °C, 12 days) | Weight of root (0.001 mg/l, 4 °C, 9 days) | Weight of root (0.001 mg/l, 4 °C, 12 days)
8.2 cm: Height (0.001 mg/l, 5 °C, 12 days)
11.3 cm^2: Area of leaf (0.001 mg/l, 1 °C, 6 days)
7.7 cm: Height (0.0001 mg/l, 4 °C, 12 days) | Height (0.001 mg/l, 4 °C, 12 days)
3.5 g: Weight of root (0.0001 mg/l, 1 °C, 9 days)
13 cm^2: Area of leaf (0.0001 mg/l, 1 °C, 12 days) | Area of leaf (0.0001 mg/l, 2 °C, 12 days) | Area of leaf (0.0001 mg/l, 4 °C, 9 days) | Area of leaf (0.001 mg/l, 1 °C, 12 days)
10.7 cm^2: Area of leaf (0.001 mg/l, 5 °C, 3 days)
11.7 cm^2: Area of leaf (0.0001 mg/l, 2 °C, 6 days)
2.8 g: Weight of root (0.0001 mg/l, 1 °C, 3 days) | Weight of root (0.0001 mg/l, 2 °C, 3 days) | Weight of root (0.0001 mg/l, 4 °C, 9 days) | Weight of root (0.001 mg/l, 1 °C, 3 days) | Weight of root (0.001 mg/l, 2 °C, 3 days) | Weight of root (0.001 mg/l, 5 °C, 3 days) | Weight of root (0.01 mg/l, 1 °C, 3 days) | Weight of root (0.01 mg/l, 2 °C, 3 days)
3.0 g: Weight of root (0.0001 mg/l, 2 °C, 6 days) | Weight of root (0.0001 mg/l, 5 °C, 12 days) | Weight of root (0.001 mg/l, 2 °C, 6 days) | Weight of root (0.001 mg/l, 5 °C, 9 days) | Weight of root (0.01 mg/l, 1 °C, 6 days) | Weight of root (0.01 mg/l, 2 °C, 6 days)
11.9 cm^2: Area of leaf (0.01 mg/l, 1 °C, 6 days)
2.5 g: Weight of root (0.0001 mg/l, 3 °C, 3 days) | Weight of root (0.0001 mg/l, 4 °C, 3 days) | Weight of root (0.001 mg/l, 3 °C, 3 days) | Weight of root (0.001 mg/l, 4 °C, 3 days) | Weight of root (0.01 mg/l, 3 °C, 3 days)
11.8 cm^2: Area of leaf (0.001 mg/l, 2 °C, 6 days) | Area of leaf (0.01 mg/l, 2 °C, 6 days)
2: Number of tiller (0.0001 mg/l, 3 °C, 12 days) | Number of tiller (0.0001 mg/l, 4 °C, 12 days) | Number of tiller (0.0001 mg/l, 5 °C, 12 days) | Number of tiller (0.001 mg/l, 3 °C, 12 days) | Number of tiller (0.001 mg/l, 4 °C, 12 days)
12.6 cm^2: Area of leaf (0.0001 mg/l, 2 °C, 9 days) | Area of leaf (0.0001 mg/l, 3 °C, 9 days) | Area of leaf (0.001 mg/l, 1 °C, 9 days) | Area of leaf (0.001 mg/l, 3 °C, 9 days) | Area of leaf (0.01 mg/l, 3 °C, 9 days)
7.8 cm: Height (0.0001 mg/l, 5 °C, 12 days) | Height (0.001 mg/l, 5 °C, 6 days)
3.1 g: Weight of root (0.0001 mg/l, 1 °C, 6 days) | Weight of root (0.001 mg/l, 1 °C, 6 days) | Weight of root (0.01 mg/l, 2 °C, 9 days)
16 cm^2: Area of leaf (0.001 mg/l, 5 °C, 9 days)
17 cm^2: Area of leaf (0.001 mg/l, 5 °C, 12 days)
3.2 g: Weight of root (0.0001 mg/l, 2 °C, 9 days) | Weight of root (0.001 mg/l, 2 °C, 9 days) | Weight of root (0.01 mg/l, 2 °C, 12 days)
2.6 g: Weight of root (0.0001 mg/l, 3 °C, 6 days) | Weight of root (0.0001 mg/l, 4 °C, 6 days) | Weight of root (0.0001 mg/l, 5 °C, 3 days) | Weight of root (0.001 mg/l, 3 °C, 6 days) | Weight of root (0.001 mg/l, 4 °C, 6 days) | Weight of root (0.01 mg/l, 3 °C, 6 days)
3.7 g: Weight of root (0.001 mg/l, 5 °C, 12 days)
7.5 cm: Height (0.0001 mg/l, 2 °C, 12 days) | Height (0.0001 mg/l, 3 °C, 9 days) | Height (0.0001 mg/l, 4 °C, 9 days) | Height (0.0001 mg/l, 5 °C, 6 days) | Height (0.0001 mg/l, 5 °C, 9 days) | Height (0.001 mg/l, 4 °C, 9 days) | Height (0.001 mg/l, 5 °C, 3 days) | Height (0.01 mg/l, 2 °C, 12 days)
12 cm^2: Area of leaf (0.0001 mg/l, 3 °C, 6 days) | Area of leaf (0.001 mg/l, 3 °C, 6 days) | Area of leaf (0.01 mg/l, 3 °C, 6 days)
12.2 cm^2: Area of leaf (0.0001 mg/l, 4 °C, 6 days)
12.8 cm^2: Area of leaf (0.0001 mg/l, 5 °C, 6 days) | Area of leaf (0.01 mg/l, 2 °C, 9 days)
11.2 cm^2: Area of leaf (0.0001 mg/l, 1 °C, 6 days)
12.9 cm^2: Area of leaf (0.01 mg/l, 1 °C, 9 days)
13.1 cm^2: Area of leaf (0.001 mg/l, 2 °C, 12 days) | Area of leaf (0.001 mg/l, 4 °C, 9 days)
13.6 cm^2: Area of leaf (0.0001 mg/l, 5 °C, 9 days) | Area of leaf (0.01 mg/l, 1 °C, 12 days)
12.4 cm^2: Area of leaf (0.0001 mg/l, 1 °C, 9 days) | Area of leaf (0.001 mg/l, 4 °C, 6 days)
10 cm^2: Area of leaf (0.0001 mg/l, 1 °C, 3 days) | Area of leaf (0.001 mg/l, 1 °C, 3 days) | Area of leaf (0.01 mg/l, 1 °C, 3 days)
13.5 cm^2: Area of leaf (0.001 mg/l, 4 °C, 12 days)
13.4 cm^2: Area of leaf (0.0001 mg/l, 4 °C, 12 days) | Area of leaf (0.01 mg/l, 2 °C, 12 days)
10.4 cm^2: Area of leaf (0.0001 mg/l, 3 °C, 3 days) | Area of leaf (0.001 mg/l, 3 °C, 3 days) | Area of leaf (0.01 mg/l, 3 °C, 3 days)
10.3 cm^2: Area of leaf (0.001 mg/l, 2 °C, 3 days)
13.2 cm^2: Area of leaf (0.0001 mg/l, 3 °C, 12 days) | Area of leaf (0.001 mg/l, 3 °C, 12 days)
10.2 cm^2: Area of leaf (0.0001 mg/l, 2 °C, 3 days)
7.9 cm: Height (0.001 mg/l, 5 °C, 9 days)
14 cm^2: Area of leaf (0.0001 mg/l, 5 °C, 12 days)
10.6 cm^2: Area of leaf (0.0001 mg/l, 4 °C, 3 days) | Area of leaf (0.0001 mg/l, 5 °C, 3 days) | Area of leaf (0.001 mg/l, 4 °C, 3 days) | Area of leaf (0.01 mg/l, 2 °C, 3 days)
3.9 g: Weight of root (0.0001 mg/l, 1 °C, 12 days) | Weight of root (0.0001 mg/l, 2 °C, 12 days) | Weight of root (0.001 mg/l, 1 °C, 12 days) | Weight of root (0.001 mg/l, 2 °C, 12 days) | Weight of root (0.01 mg/l, 1 °C, 12 days)
7.1 cm: Height (0.0001 mg/l, 1 °C, 3 days) | Height (0.0001 mg/l, 2 °C, 3 days) | Height (0.0001 mg/l, 3 °C, 3 days) | Height (0.0001 mg/l, 4 °C, 3 days) | Height (0.001 mg/l, 1 °C, 6 days) | Height (0.001 mg/l, 2 °C, 6 days) | Height (0.001 mg/l, 3 °C, 6 days) | Height (0.001 mg/l, 4 °C, 3 days)
7.3 cm: Height (0.0001 mg/l, 2 °C, 9 days) | Height (0.0001 mg/l, 4 °C, 6 days) | Height (0.001 mg/l, 1 °C, 9 days) | Height (0.001 mg/l, 1 °C, 12 days) | Height (0.001 mg/l, 2 °C, 12 days) | Height (0.001 mg/l, 4 °C, 6 days) | Height (0.01 mg/l, 1 °C, 9 days) | Height (0.01 mg/l, 2 °C, 9 days)
2.7 g: Weight of root (0.0001 mg/l, 5 °C, 6 days) | Weight of root (0.001 mg/l, 5 °C, 6 days)
